Assays:
[1] = system: diabetic Zucker rats; assay: Oral glucose tolerance test after 3 weeks dosing in diabetic Zucker rats; type: in vivo, rat; conditions: male diabetic Zucker rats, 1.5 mg/kg bid for 3 weeks, vs vehicle
Experimental: (§1) A study was performed in a colony of diabetic Zucker rats housed in Vancouver, Canada. This is a model of hyperinsulinemia and impaired glucose tolerance/mild type 2 diabetes. The aim was to investigate whether treatment with the test compound 6-chloro-3-(1-methylcylodopropyl)amino-4H-thieno[3,2-e]-1,2,4-thiadiazine 1,1-dioxide could lead to a reduction in hyperinsulinemia and an improvement in insulin secretory responsiveness to glucose in the perfused pancreas. Male diabetic Zucker rats were dosed for 3 weeks with either 1.5 mg/kg 6-chloro-3-(1-methylcylodopropyl)amino-4H-thieno[3,2-e]-1,2,4-thiadiazine 1,1-dioxide bid (n=8) or vehicle (n=16). Oral glucose tolerance was assessed in the animals the day after the last dose was given.

[2] = system: perfused pancreas; assay: Perfused pancreas from treated diabetic Zucker rats; type: in vivo, rat
Experimental: as §1

[3] = molecular target: KATP-channels on pancreatic beta-cells (Homo sapiens, UniProt Q09428); conditions: by activation of KATP-channels on pancreatic beta-cells; Pirotte et al. 1993, 1994; cited from earlier work
Chain of KATP-channels on pancreatic beta-cells (Q09428 whole entry): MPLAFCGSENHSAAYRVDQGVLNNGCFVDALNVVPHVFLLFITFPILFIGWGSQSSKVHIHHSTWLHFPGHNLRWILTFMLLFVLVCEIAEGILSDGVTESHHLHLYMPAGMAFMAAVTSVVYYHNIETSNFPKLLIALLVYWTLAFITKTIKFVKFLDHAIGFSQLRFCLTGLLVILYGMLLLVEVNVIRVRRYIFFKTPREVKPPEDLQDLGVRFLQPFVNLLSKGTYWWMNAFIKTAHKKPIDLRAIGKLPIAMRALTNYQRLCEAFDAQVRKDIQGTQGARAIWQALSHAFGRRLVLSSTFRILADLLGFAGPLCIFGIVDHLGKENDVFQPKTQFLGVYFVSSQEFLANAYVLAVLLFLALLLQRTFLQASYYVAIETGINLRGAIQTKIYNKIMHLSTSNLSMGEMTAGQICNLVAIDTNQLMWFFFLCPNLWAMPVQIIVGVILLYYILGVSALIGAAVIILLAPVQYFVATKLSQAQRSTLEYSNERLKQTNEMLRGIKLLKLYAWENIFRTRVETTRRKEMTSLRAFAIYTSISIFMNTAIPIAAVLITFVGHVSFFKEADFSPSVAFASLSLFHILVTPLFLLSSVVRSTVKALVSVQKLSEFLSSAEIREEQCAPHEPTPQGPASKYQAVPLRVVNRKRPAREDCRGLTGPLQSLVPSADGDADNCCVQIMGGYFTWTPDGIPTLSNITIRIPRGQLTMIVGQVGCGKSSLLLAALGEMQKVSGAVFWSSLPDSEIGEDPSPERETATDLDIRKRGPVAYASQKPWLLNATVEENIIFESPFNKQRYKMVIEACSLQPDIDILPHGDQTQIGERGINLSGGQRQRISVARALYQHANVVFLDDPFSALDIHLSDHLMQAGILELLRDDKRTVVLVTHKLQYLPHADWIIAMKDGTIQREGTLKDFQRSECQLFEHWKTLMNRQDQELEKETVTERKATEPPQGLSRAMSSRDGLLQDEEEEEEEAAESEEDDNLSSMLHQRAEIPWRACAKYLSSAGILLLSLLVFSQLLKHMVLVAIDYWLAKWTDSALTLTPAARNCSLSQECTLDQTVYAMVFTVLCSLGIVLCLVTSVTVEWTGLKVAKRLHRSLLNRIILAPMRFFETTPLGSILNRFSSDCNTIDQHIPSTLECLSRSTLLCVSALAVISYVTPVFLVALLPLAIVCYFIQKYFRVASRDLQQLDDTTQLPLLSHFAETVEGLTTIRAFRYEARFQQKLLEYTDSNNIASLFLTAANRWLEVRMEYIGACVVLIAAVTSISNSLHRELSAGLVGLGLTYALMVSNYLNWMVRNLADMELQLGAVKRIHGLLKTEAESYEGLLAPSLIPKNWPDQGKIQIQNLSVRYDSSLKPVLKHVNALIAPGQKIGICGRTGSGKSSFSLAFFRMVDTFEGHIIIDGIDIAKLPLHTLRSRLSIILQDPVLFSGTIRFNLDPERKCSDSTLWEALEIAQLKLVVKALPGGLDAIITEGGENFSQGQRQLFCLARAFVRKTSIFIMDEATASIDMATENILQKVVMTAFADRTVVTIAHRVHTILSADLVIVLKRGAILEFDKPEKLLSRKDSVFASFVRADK
Chain of KATP-channels on pancreatic beta-cells (Q14654 whole entry partner): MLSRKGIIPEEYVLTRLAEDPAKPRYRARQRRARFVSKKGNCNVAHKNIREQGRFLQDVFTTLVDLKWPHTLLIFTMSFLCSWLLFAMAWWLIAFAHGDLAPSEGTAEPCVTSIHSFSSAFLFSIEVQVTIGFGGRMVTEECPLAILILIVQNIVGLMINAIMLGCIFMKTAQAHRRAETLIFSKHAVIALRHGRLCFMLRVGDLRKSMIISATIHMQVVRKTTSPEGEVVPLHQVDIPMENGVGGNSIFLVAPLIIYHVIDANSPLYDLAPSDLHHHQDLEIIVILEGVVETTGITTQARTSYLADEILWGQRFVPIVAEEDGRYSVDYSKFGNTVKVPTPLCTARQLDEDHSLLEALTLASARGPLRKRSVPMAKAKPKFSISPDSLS

SMILES	oral glucose tolerance ([1]; assessed the day after the last dose)	hyperinsulinemia (associated with the oral glucose tolerance test) ([1]; day after the last dose)	hyperinsulinemia in perfused pancreas ([2]; pancreata from rats treated 1.5 mg/kg bid for 3 weeks, evaluated two days after OGTT)	insulin secretory responsiveness to glucose in perfused pancreas ([2]; pancreata from treated rats, two days after OGTT, data expressed relative to baseline)	insulin release [3]
CC1(NC2=NS(=O)(=O)c3sc(Cl)cc3N2)CC1 [6-chloro-3-(1-methylcylodopropyl)amino-4H-thieno[3,2-e]-1,2,4-thiadiazine 1,1-dioxide]	significantly improved	significant reduction in hyperinsulinemia	reduced hyperinsulinemia	improved insulin secretory responsiveness to glucose	
CC1=Nc2ccc(Cl)cc2S(=O)(=O)N1 [diazoxide, 7-chloro-3-methyl-2H-1,2,4-benzothiadiazine 1,1-dioxide]					inhibit insulin release
